Data published in patent US12655127B2, “Fused ring compound as Wee-1 inhibitor” (WIGEN BIOMEDICINE TECHNOLOGY (SHANGHAI) CO., LTD., priority 2021, dated 2026).

Experiments:
[1] = test system: HT29 subcutaneous xenograft tumor; experiment: Mouse HT29 subcutaneous xenograft tumor model; assay type: in vivo; conditions: for TGI: day 18, nude mouse HT29 xenograft; for Tumor volume on day 1 of treatment (mm^3) / Tumor volume on day 18 of treatment (mm^3): nude mouse HT29 xenograft
Procedure: HT29 is a colon cancer cell. Each nude mouse was grafted subcutaneously with 5×10^6 HT29 cells. When the tumor grew to 100-200 mm^3, the compound was administered orally once a day alone or in combination with 15 mg/kg of gemcitabine injected intraperitoneally once a week, and the tumor volume was measured twice a week and at the end of treatment. Tumor growth inhibition of the compound was calculated according to the following equation: tumor growth inhibition (TGI)=1−(tumor volume on day 18 in treatment group−tumor volume on day 1 in treatment group)/(tumor volume on day 18 in vehicle control group−tumor volume on day 1 in treatment group).

[2] = target: recombinant protein Wee-1 (Homo sapiens, UniProt P30291); experiment: Inhibition of enzymatic activity of recombinant protein Wee-1 (HTRF); assay type: biochemical
Procedure: The inhibitory effect of the compounds on the enzyme activity of recombinant protein Wee-1 was determined by HTRF. The procedures are as follows:
After DMSO or serially diluted compounds (up to 200 nM, 1:5 serially diluted) and recombinant proteins were co-incubated in a kinase buffer at 37° C. for 30 min Fluorescein-PolyGAT and ATP were added, and then the reaction was started by the addition of a substrate. After incubation at room temperature for 90 min, an antibody and a detection solution were added, and after further incubation at room temperature for 60 min, fluorescence values were detected (excitation wavelength: 340 nm, emission wavelengths: 495 and 520 nm). The 520 nm/495 nm fluorescence intensity ratio value was calculated, and compared with that of the DMSO group, and then the inhibition percentages and IC50 values of the compounds were calculated.

MIA PaCa-2 cells [3] = experiment: In-vitro anti-proliferative activity on MIA PaCa-2 cells; assay type: cell-based; conditions: Homo sapiens, 72 h after dosing, intracellular ATP content
Procedure: (§1) MIA PaCa-2 cells were seeded on a 384-well plate at 3000 cells/well. After overnight adherence culture, DMSO or the compounds serially diluted 1:5 from 5 μM were added. The viability was assessed 72 h after dosing by measuring the intracellular ATP content. The inhibition percentage of viable cells by the compounds was calculated by comparing with the DMSO group, and the IC50 value was calculated.

MIA PaCa-2 cells [4] = experiment: In-vitro anti-proliferative activity in combination with gemcitabine on MIA PaCa-2 cells; assay type: cell-based; conditions: with 20 nM gemcitabine, 72 h after dosing, intracellular ATP content
Procedure: as §1, with “cells/well, and 20 nM gemcitabine was added.” for “cells/well.”, “100 nM” for “5 μM”

[5] = 30 mg/kg orally once a day in combination with 15 mg/kg of gemcitabine i.p. once a week
[6] = monotherapy, 30 mg/kg orally once a day
[7] = gemcitabine 15 mg/kg intraperitoneally once a week

recombinant protein Wee-1, sequence (P30291 whole entry): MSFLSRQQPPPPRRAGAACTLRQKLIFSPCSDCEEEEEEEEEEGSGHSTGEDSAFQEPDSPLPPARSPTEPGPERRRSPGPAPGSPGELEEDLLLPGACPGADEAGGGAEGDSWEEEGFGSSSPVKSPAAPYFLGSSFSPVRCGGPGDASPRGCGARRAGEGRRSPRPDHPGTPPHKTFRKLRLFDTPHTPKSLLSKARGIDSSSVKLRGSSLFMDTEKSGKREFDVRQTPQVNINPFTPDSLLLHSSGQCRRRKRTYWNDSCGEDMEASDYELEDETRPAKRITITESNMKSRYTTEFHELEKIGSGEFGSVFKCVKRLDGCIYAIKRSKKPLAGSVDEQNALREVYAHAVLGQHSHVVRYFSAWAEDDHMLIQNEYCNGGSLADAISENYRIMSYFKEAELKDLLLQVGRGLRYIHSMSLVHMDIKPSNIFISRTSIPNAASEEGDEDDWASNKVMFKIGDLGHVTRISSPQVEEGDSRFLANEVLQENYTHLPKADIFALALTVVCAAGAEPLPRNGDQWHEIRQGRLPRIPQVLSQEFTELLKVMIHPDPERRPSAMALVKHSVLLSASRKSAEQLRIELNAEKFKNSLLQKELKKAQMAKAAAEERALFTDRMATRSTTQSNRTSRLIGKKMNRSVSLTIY

IC50 [2] [nM]	IC50 (MIA PaCa-2 cells [3]) [nM]	IC50 (MIA PaCa-2 cells [4]) [nM]	SMILES	further results
≤ 10	1090	6.4	CN1Cc2cc(Nc3ncc(C#N)c(Nc4cccc(N=S(C)(C)=O)n4)n3)cc3c2[C@@H](CCC3)C1 (single isomer, unassigned) [Compound 3]	–
≤ 10	236	1.9	CN1Cc2cc(Nc3ncc(C#N)c(Nc4cccc(N=S(C)(C)=O)n4)n3)cc3c2C(CCC3)C1 (centres unmarked) [Compound 1]	–
–	186	1.1	CN1Cc2cc(Nc3ncc(C#N)c(Nc4ccc(F)c(N=S(C)(C)=O)n4)n3)cc3c2C(CCC3)C1 (centres unmarked) [Compound 110]	–
≤ 10	> 5000	29	CN1Cc2cc(Nc3ncc(C#N)c(Nc4nc(N=S(C)(C)=O)ccc4F)n3)cc3c2C(CCC3)C1 (centres unmarked) [Compound 112]	–
≤ 10	89	1.4	COc1ccc(Nc2nc(Nc3cc4c5c(c3)CN(C)CC5CCC4)ncc2C#N)nc1N=S(C)(C)=O (centres unmarked) [Compound 121]	–
≤ 10	72	1.5	Cc1ccc(Nc2nc(Nc3cc4c5c(c3)CN(C)CC5CCC4)ncc2C#N)nc1N=S(C)(C)=O (centres unmarked) [Compound 295]	–
≤ 10	161	3.1	CN1Cc2cc(Nc3ncc(C#N)c(Nc4ccc(Cl)c(N=S(C)(C)=O)n4)n3)cc3c2C(CCC3)C1 (centres unmarked) [Compound 296]	–

Second part, the molecule before the results:

SMILES	IC50 [2] [nM]	IC50 (MIA PaCa-2 cells [3]) [nM]	IC50 (MIA PaCa-2 cells [4]) [nM]	further results
CN1Cc2cc(Nc3ncc(C#N)c(Nc4cccc(N=S(C)(C)=O)n4)n3)cc3c2[C@H](CCC3)C1 (single isomer, unassigned) [Compound 2]	≤ 10	259	0.245	TGI [1, 5]: 109%; Tumor volume on day 1 of treatment (mm^3) [1, 5]: 112 mm^3; Tumor volume on day 18 of treatment (mm^3) [1, 5]: 11 mm^3; TGI [1, 6]: 99%; Tumor volume on day 1 of treatment (mm^3) [1, 6]: 112 mm^3; Tumor volume on day 18 of treatment (mm^3) [1, 6]: 115 mm^3
CN1Cc2cc(Nc3ncc(C#N)c(Nc4cccc(N=S(C)(C)=O)n4)n3)cc3c2C(C)(CCC3)C1 (centres unmarked) [Compound 4]	≤ 10	968	2.4	–
CN1Cc2cc(Nc3ncc(C#N)c(Nc4cccc(N=S(C)(C)=O)n4)n3)cc3c2[C@](C)(CCC3)C1 [Compound 5]	≤ 10	1180	2.1	–
CN1Cc2cc(Nc3ncc(C#N)c(Nc4cccc(N=S(C)(C)=O)n4)n3)cc3c2[C@@](C)(CCC3)C1 [Compound 6]	≤ 10	910	5.3	–
COc1c(Nc2ncc(C#N)c(Nc3cccc(N=S(C)(C)=O)n3)n2)cc2c3c1CCCC3CN(C)C2 (centres unmarked) [Compound 49]	10 to 50	> 5000	> 100	–
CN1Cc2cc(Nc3ncc(C#N)c(Nc4cccc(N=S(C)(C)=O)n4)n3)cc3c2C(CC3)C1 (centres unmarked) [Compound 50]	10 to 50	148	> 100	–
CN1Cc2cc(Nc3ncc(C#N)c(Nc4cccc(N=S(C)(C)=O)n4)n3)cc3c2C(CCO3)C1 (centres unmarked) [Compound 64]	≤ 10	400	3.5	–
CN1Cc2cc(Nc3ncc(C#N)c(Nc4cccc(N=S(C)(C)=O)n4)n3)cc3c2C1CCC3 (centres unmarked) [Compound 87]	≤ 10	184	1.6	–
CN1Cc2cc(Nc3ncc(C#N)c(Nc4cncc(N=S(C)(C)=O)n4)n3)cc3c2C(CCC3)C1 (centres unmarked) [Compound 105]	≤ 10	441	2.1	–
CN1Cc2cc(Nc3ncc(C#N)c(Nc4cc5ccccc5c(N=S(C)(C)=O)n4)n3)cc3c2C(CCC3)C1 (centres unmarked) [Compound 108]	≤ 10	225	11	–
CN1Cc2cc(Nc3ncc(C#N)c(Nc4cccc(P(C)(C)=O)n4)n3)cc3c2C(CCC3)C1 (centres unmarked) [Compound 137]	≤ 10	> 5000	26	–
Nc1ccn([C@@H]2O[C@H](CO)[C@@H](O)C2(F)F)c(=O)n1 [Gemcitabine, gemcitabine, reference compound]	–	–	–	TGI [1, 7]: 57%; Tumor volume on day 1 of treatment (mm^3) [1, 7]: 112 mm^3; Tumor volume on day 18 of treatment (mm^3) [1, 7]: 539 mm^3
